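Five compound concentrations were applied to cells in 96-well plates for 48 hours; endpoints were derived by simple linear interpolation of the resulting dose-response curve. The concentration for 50% growth inhibition is given as GI50. At the TGI there is no net growth.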
Tests used:
Assay in all cases: inhibition of tumour cell growth, NCI panel, 48 h
[1] = test system: OVCAR-8 ovarian
[2] = test system: EKVX NSCLC
[3] = test system: SR leukemia
[4] = test system: M14 melanoma
[5] = test system: T-47D breast
[6] = test system: A498 renal
[7] = test system: CCRF-CEM leukemia
[8] = test system: UACC-62 melanoma
[9] = test system: UACC-257 melanoma
[10] = test system: OVCAR-4 ovarian
[11] = test system: HOP-92 NSCLC
[12] = test system: SK-MEL-5 melanoma
[13] = test system: RXF 393 renal
[14] = test system: COLO 205 colon
[15] = test system: BT-549 breast
[16] = test system: SK-MEL-2 melanoma
[17] = test system: HL-60(TB) leukemia
[18] = test system: NCI-H23 lung
[19] = test system: 786-0 renal
[20] = test system: SK-OV-3 ovarian
[21] = test system: TK-10 renal
[22] = test system: SK-MEL-28 melanoma
[23] = test system: HT29 colon
[24] = test system: MDA-MB-231 breast
[25] = test system: NCI-H522 lung
[26] = test system: HOP-62 NSCLC
[27] = test system: DU-145 prostate
[28] = test system: MOLT-4 leukemia
[29] = test system: HS 578T breast
[30] = test system: IGROV1 ovarian
[31] = test system: LOX IMVI melanoma
[32] = test system: MALME-3M melanoma
[33] = test system: SW-620 colon
[34] = test system: SF-295 CNS
[35] = test system: MDA-MB-468 breast
[36] = test system: PC-3 prostate
[37] = test system: SNB-19 CNS
[38] = test system: A549 NSCLC
[39] = test system: ACHN renal
[40] = test system: HCT-15 colon
[41] = test system: RPMI-8226 leukemia
[42] = test system: U251 CNS
[43] = test system: OVCAR-5 ovarian
[44] = test system: NCI-H460 lung
[45] = test system: UO-31 renal
[46] = test system: MCF7 breast
[47] = test system: MDA-MB-435
[48] = test system: OVCAR-3 ovarian
[49] = test system: KM12 colon
[50] = test system: K-562 leukemia
[51] = test system: HCT-116 colon
[52] = test system: CAKI-1 renal
[53] = test system: SF-539 CNS
[54] = test system: SN12C renal
[55] = test system: NCI-H226 lung
[56] = test system: SF-268 CNS
[57] = test system: HCC-2998 colon
[58] = test system: SNB-75 CNS
[59] = test system: NCI/ADR-RES ovarian

Cn1cc(-c2cc3nc(-c4cn(C)c5ncc(Br)cc45)cc(N)n3n2)c2cc(F)ccc21
GI50 [1]: 6.2 µM | TGI [1]: 20.9 µM | GI50 [2]: 11.4 µM | TGI [2]: 29.7 µM | GI50 [3]: 4.58 µM | TGI [3]: > 100 µM | GI50 [4]: 4.05 µM | TGI [4]: 14.9 µM | GI50 [5]: 3.25 µM | TGI [5]: 15.6 µM | GI50 [6]: 13.5 µM | TGI [6]: 30.2 µM | GI50 [7]: 8.29 µM | TGI [7]: > 100 µM | GI50 [8]: 2.64 µM | TGI [8]: 10.9 µM | GI50 [9]: 7.29 µM | TGI [9]: 21.4 µM | GI50 [10]: 4.51 µM | TGI [10]: 19.3 µM | GI50 [11]: 11.3 µM | TGI [11]: 33.8 µM | GI50 [12]: 12.5 µM | TGI [12]: 25.4 µM | GI50 [13]: 2.54 µM | TGI [13]: 5.96 µM | GI50 [14]: 12.6 µM | TGI [14]: 40.7 µM | GI50 [15]: 10.9 µM | TGI [15]: 23.6 µM | GI50 [16]: 11.4 µM | TGI [16]: 24.2 µM | GI50 [17]: 12.1 µM | TGI [17]: 73.1 µM | GI50 [18]: 7.44 µM | TGI [18]: 21.3 µM | GI50 [19]: 4.64 µM | TGI [19]: 17 µM | GI50 [20]: 15 µM | TGI [20]: 32.4 µM | GI50 [21]: 4.92 µM | TGI [21]: 18.8 µM | GI50 [22]: 3.9 µM | TGI [22]: 14.4 µM | GI50 [23]: 3.18 µM | TGI [23]: 11.3 µM | GI50 [24]: 2.9 µM | TGI [24]: 10 µM | GI50 [25]: 5.61 µM | TGI [25]: 21.6 µM | GI50 [26]: 7.8 µM | TGI [26]: 24.3 µM | GI50 [27]: 5.16 µM | TGI [27]: 19.3 µM | GI50 [28]: 5.98 µM | TGI [28]: > 100 µM | GI50 [29]: 10.7 µM | TGI [29]: 48.6 µM | GI50 [30]: 3.91 µM | TGI [30]: 14.1 µM | GI50 [31]: 1.91 µM | TGI [31]: 3.47 µM | GI50 [32]: 3.43 µM | TGI [32]: 12.1 µM | GI50 [33]: 6.46 µM | TGI [33]: 21.5 µM | GI50 [34]: 1.8 µM | TGI [34]: 3.82 µM | GI50 [35]: 1.95 µM | TGI [35]: 4.19 µM | GI50 [36]: 10.4 µM | TGI [36]: 46.8 µM | GI50 [37]: 11 µM | TGI [37]: 23.8 µM | GI50 [38]: 3.37 µM | TGI [38]: 16.8 µM | GI50 [39]: 3.72 µM | TGI [39]: 13.2 µM | GI50 [40]: 3.73 µM | TGI [40]: 16.4 µM | GI50 [41]: 10.1 µM | TGI [41]: > 100 µM | GI50 [42]: 3.23 µM | TGI [42]: 11.5 µM | GI50 [43]: 12.5 µM | TGI [43]: 29.4 µM | GI50 [44]: 3.44 µM | TGI [44]: 11.6 µM | GI50 [45]: 12.2 µM | TGI [45]: 25.4 µM | GI50 [46]: 3.6 µM | TGI [46]: 12.8 µM | GI50 [47]: 6.19 µM | TGI [47]: 20.1 µM | GI50 [48]: 11.1 µM | TGI [48]: 27 µM | GI50 [49]: 12.9 µM | TGI [49]: 49 µM | GI50 [50]: 6 µM | TGI [50]: > 100 µM | GI50 [51]: 15 µM | TGI [51]: 32.3 µM | GI50 [52]: 8.11 µM | TGI [52]: 22.5 µM | GI50 [53]: 3.54 µM | TGI [53]: 13 µM | GI50 [54]: 4.41 µM | TGI [54]: 19.8 µM | GI50 [55]: 5.36 µM | TGI [55]: 19.8 µM | GI50 [56]: 19.2 µM | TGI [56]: 79.8 µM | GI50 [57]: 7.19 µM | TGI [57]: 27.6 µM

COc1ccc2[nH]c(O)c(N=Nc3nc(-c4ccc(Cl)cc4)cs3)c2c1
GI50 [1]: 1.86 µM | TGI [1]: 3.71 µM | GI50 [2]: 2.7 µM | TGI [2]: 21.4 µM | GI50 [3]: 4.69 µM | TGI [3]: > 100 µM | GI50 [4]: 1.99 µM | TGI [4]: 5.29 µM | GI50 [5]: 1.83 µM | TGI [5]: 5.97 µM | GI50 [6]: 2.22 µM | TGI [6]: 4.94 µM | GI50 [7]: 4.1 µM | TGI [7]: > 100 µM | GI50 [9]: 6.52 µM | TGI [9]: > 100 µM | GI50 [10]: 1.83 µM | TGI [10]: 3.54 µM | GI50 [11]: 1.92 µM | TGI [11]: 4.88 µM | GI50 [12]: 4.1 µM | TGI [12]: 19.4 µM | GI50 [13]: 1.67 µM | TGI [13]: 3.29 µM | GI50 [14]: 3.1 µM | TGI [14]: > 100 µM | GI50 [15]: 3.21 µM | TGI [15]: 28.3 µM | GI50 [16]: 3.14 µM | TGI [16]: 34.4 µM | GI50 [17]: > 100 µM | TGI [17]: > 100 µM | GI50 [18]: 2.12 µM | TGI [18]: 5.62 µM | GI50 [19]: 1.6 µM | TGI [19]: 3.09 µM | GI50 [20]: 3.07 µM | TGI [20]: 19.7 µM | GI50 [21]: 9.16 µM | TGI [21]: 32.3 µM | GI50 [23]: 3.52 µM | TGI [23]: 50.8 µM | GI50 [24]: 2.73 µM | TGI [24]: 8.19 µM | GI50 [25]: 2.09 µM | TGI [25]: 6.38 µM | GI50 [26]: 2.61 µM | TGI [26]: 9.06 µM | GI50 [27]: 3.61 µM | TGI [27]: 30.9 µM | GI50 [28]: 3.26 µM | TGI [28]: > 100 µM | GI50 [29]: 4.54 µM | TGI [29]: 99.7 µM | GI50 [30]: 4.51 µM | TGI [30]: 60.8 µM | GI50 [31]: 1.9 µM | TGI [31]: 4.08 µM | GI50 [58]: 3.36 µM | TGI [58]: 17.5 µM | GI50 [32]: 1.74 µM | TGI [32]: 3.37 µM | GI50 [34]: 5.01 µM | TGI [34]: 20.6 µM | GI50 [35]: 1.45 µM | TGI [35]: 3.24 µM | GI50 [37]: 4.56 µM | TGI [37]: 38.3 µM | GI50 [38]: 2.08 µM | TGI [38]: 5.09 µM | GI50 [39]: 2.9 µM | TGI [39]: 8.71 µM | GI50 [40]: 1.93 µM | TGI [40]: 4.14 µM | GI50 [41]: 3.91 µM | TGI [41]: > 100 µM | GI50 [42]: 2.06 µM | TGI [42]: 4.18 µM | GI50 [43]: 3.09 µM | TGI [43]: 17 µM | GI50 [44]: 2.68 µM | TGI [44]: 6.25 µM | GI50 [45]: 3.3 µM | TGI [45]: 16.3 µM | GI50 [59]: 1.92 µM | TGI [59]: 4.03 µM | GI50 [46]: 2.53 µM | TGI [46]: 16.7 µM | GI50 [47]: 5.86 µM | TGI [47]: > 100 µM | GI50 [48]: 1.81 µM | TGI [48]: 3.53 µM | GI50 [49]: 3.15 µM | TGI [49]: > 100 µM | GI50 [50]: 3.49 µM | TGI [50]: > 100 µM | GI50 [51]: 1.88 µM | TGI [51]: 3.75 µM | GI50 [52]: 6.7 µM | TGI [52]: 30.6 µM | GI50 [53]: 1.98 µM | TGI [53]: 4.22 µM | GI50 [54]: 1.93 µM | TGI [54]: 4.42 µM | GI50 [55]: 3 µM | TGI [55]: 12.4 µM | GI50 [56]: 4.41 µM | TGI [56]: > 100 µM

Reference: PubChem BioAssay (NCI)
